# Measured values taken from US12599600B2, “Compositions and methods for preventing and treating headache through enhancing 2-arachydonyl glyerol activity” (Arizona Board of Regents on Behalf of the University of …, priority 2020, dated 2026).
# Experiments:
# CB2R [1] = biological target: T1, CB2R (Homo sapiens, UniProt P34972); settings: cited from earlier work
# CB2R [2] = biological target: T1, CB2R; settings: cited from earlier work; remark: listed apart in the source
# GPR55 = GPR55 (Homo sapiens, UniProt Q9Y2T6); settings: cited from earlier work
# [3] = test system: cortical KCl induced periorbital allodynia in female rats; test: Cortical KCl induced periorbital (facial) allodynia in female rats; type: in vivo, rat; settings: for reversal of periorbital allodynia / prevention of periorbital allodynia: female rats
# Protocol: FIG. 2A-D: Cortical KCl, but not dural KCl, induces periorbital allodynia in female rats and activates cFOS. A. Cortical KCl (0.5 μL, 1M) induces significant periorbital allodynia that is not blocked by dural lidocaine (2%, 5 μl, 10-15 min) pretreatment. […] C. Comparing areas under the curves for A and B confirmed that cortical KCl, regardless of dural lidocaine, induces significant periorbital allodynia that is not replicated by dural application of KCl. D. Cortical KCl allodynia increases cortical cFos 90 min post-injection (n=3-4/group). Data are mean±SEM (n=8-11), one or two-way ANOVA, *p<0.05: **<0.01: ***p<0.001: dotted line-naïve.
# FIG. 8A-B: MAGL inhibition alleviates cortical KCl induced periorbital allodynia in female rats. […] Data are expressed mean±SEM (n=8-12), two-way RMANOVA Bonferroni, *p<0.051 **p<0.01: ****p<0.0001.
# FIG. 9A-B: ABHD6 inhibition alleviates cortical KCl induced periorbital allodynia in female rats. […] Data are expressed mean±SEM (n=8-12), two-way RMANOVA Bonferroni, *p<0.05: **p<0.01: ***p<0.001.
# FIG. 10A-B: Dual MAGL/ABHD6 inhibition alleviates cortical KCl induced periorbital allodynia in female rats. […] Data are expressed mean±SEM (n=7-14), two-way RMANOVA, Bonferroni, *p<0.05: **p<0.01: ****p<0.0001.
# (§1) FIG. 13A-B: MAGL inhibition and cannabinoid receptor selectivity. Injection of CB1R antagonist, rimonabant (1 mg/kg, IP) prior to KCl shifted onset of MJN110 (10 mg/kg, IP) by 30 min. CB2R antagonist, SR144528 (1 mg/kg, IP), injected prior to KCl blocked the anti-allodynic effect of MJN110. Data are expressed mean±SEM (n=9), one- and two-way ANOVA, *p<0.05, ***p<0.001, ****p<0.0001.
# Data are expressed mean±SEM (n=8-12), two-way RMANOVA Bonferroni, *p<0.051 **p<0.01: ****p<0.0001.
# Data are expressed mean±SEM (n=8-12), two-way RMANOVA Bonferroni, *p<0.05: **p<0.01: ***p<0.001.
# Data are expressed mean+SEM (n=7-14), two-way RMANOVA, Bonferroni, *p<0.05: **p<0.01: ****p<0.0001.
# as §1, with “Injection” for “FIG. 13A-B: MAGL inhibition and cannabinoid receptor selectivity. Injection”, “mean #SEM” for “mean±SEM”
# migraine pain = settings: preclinical, cited from earlier work
# T1 sequence (P34972 whole entry): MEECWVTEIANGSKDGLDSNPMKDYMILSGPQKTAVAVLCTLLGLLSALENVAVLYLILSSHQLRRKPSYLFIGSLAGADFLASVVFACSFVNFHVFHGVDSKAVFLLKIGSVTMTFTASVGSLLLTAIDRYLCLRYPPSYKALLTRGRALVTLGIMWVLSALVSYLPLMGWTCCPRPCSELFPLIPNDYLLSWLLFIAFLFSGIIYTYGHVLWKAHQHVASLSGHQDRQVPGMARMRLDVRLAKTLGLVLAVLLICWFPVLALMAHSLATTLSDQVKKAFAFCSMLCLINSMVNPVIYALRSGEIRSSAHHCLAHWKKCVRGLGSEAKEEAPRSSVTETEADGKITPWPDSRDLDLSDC
# Chain of GPR55 (Q9Y2T6 whole entry, species assumed): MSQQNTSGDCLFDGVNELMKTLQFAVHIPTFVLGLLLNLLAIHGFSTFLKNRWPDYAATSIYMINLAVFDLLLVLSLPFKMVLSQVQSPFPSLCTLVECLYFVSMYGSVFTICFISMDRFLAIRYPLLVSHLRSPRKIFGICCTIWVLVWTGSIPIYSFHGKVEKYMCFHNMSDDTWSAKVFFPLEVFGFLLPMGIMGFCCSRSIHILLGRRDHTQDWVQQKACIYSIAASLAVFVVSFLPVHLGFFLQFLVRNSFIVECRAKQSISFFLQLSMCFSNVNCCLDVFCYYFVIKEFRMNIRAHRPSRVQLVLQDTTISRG
compound,measurement,setting,value
"CCCCC/C=C\C/C=C\C/C=C\C/C=C\CCCC(=O)OC(CO)CO [2AG, 2-arachidonoylglycerol]",Ki,CB2R [1],175 to 1400 nM
same,EC50,CB2R [2],4 nM
same,Emax,CB2R [2],34%
same,EC50,GPR55,618 nM
"O=C(N1CCCCC1c1ccccc1)n1cc(-c2ccc(-c3cccc(CO)c3)cc2)nn1 (centres unmarked) [KT182, (4-(3′-(hydroxymethyl)-[1,1′-biphenyl]-4-yl)-1H-1,2,3-triazol-1-yl)(2-phenylpiperidin-1-yl) methanone]",reversal of periorbital allodynia,[3]; KT182 2 mg/kg IP after cortical KCl (0.5 μL),reverses
same,prevention of periorbital allodynia,[3]; KT182 2 mg/kg IP before cortical KCl (0.5 μL),prevents
"O=C(ON1C(=O)CCC1=O)N1CCN(C(c2ccc(Cl)cc2)c2ccc(Cl)cc2)CC1 [MJN110, 2,5-dioxopyrrolidin-1-yl 4-(bis(4-chlorophenyl)methyl)piperazine-1-carboxylate]",reversal of periorbital allodynia,[3]; MJN110 10 mg/kg IP after cortical KCl (0.5 μL),reverses
same,prevention of periorbital allodynia,[3]; MJN110 10 mg/kg IP before cortical KCl (0.5 μL),prevents
CCCCCc1cc(O)c2c(c1)OC(C)(C)[C@@H]1CCC(C)=C[C@@H]21 [THC],reduction of migraine pain,migraine pain; acute,effective
same,migraine-like pain,migraine pain; repeated exposure,increases
CCN(CC)CC(=O)Nc1c(C)cccc1C [lidocaine],block of cortical KCl induced periorbital allodynia,"[3]; dural lidocaine 2%, 5 μl, 10-15 min pretreatment, cortical KCl 0.5 μL, 1M",not blocked
same,effect on periorbital allodynia after dural KCl,"[3]; lidocaine pretreatment, dural KCl 5 uL, 1M",no effect
Cc1c(C(=O)NN2CCCCC2)nn(-c2ccc(Cl)cc2Cl)c1-c1ccc(Cl)cc1 [rimonabant],shift of onset of MJN110 effect,"[3]; rimonabant 1 mg/kg IP prior to KCl, MJN110 10 mg/kg IP",30 min
SR144528,effect on the anti-allodynic effect of MJN110,"[3]; SR144528 1 mg/kg IP prior to KCl, MJN110 10 mg/kg IP",blocked
